Measured values reported in article PMC12624573, “The antigen presentation landscape of cytokine-stressed human pancreatic islets” (Cell reports, 2025).
Residues, ends and D or L forms follow the SMILES beside them. No end group written: not given here. *: point of attachment. Carboxymethyl = O=C(O)C*

Legend:
[1] = test system: islet-derived T cell lines; experiment: Cytokine bead array (IFN-γ, TNF-α, IL-10), combined islet-derived T cell lines from donors with T1D; conditions: for islet derived T cell lines response to A2-S peptide pools or to single peptides: class I (A2) peptide pools or single peptides; for islet derived T cell lines response to A2-S peptide pools or to single peptides / islet derived T cell lines response to DR peptide pools or to single peptides: IFNg, TNFa, IL-10 secretion; for islet derived T cell lines response to DR peptide pools or to single peptides: class II (DR) peptide pools or single peptides
[2] = test system: CD8+ T cells from PBMC; experiment: IFN-γ ELISpot, PBMC-derived in vitro expanded CD8+ T cell lines; format: cell-based, human; conditions: PBMC T cell lines, responding donors/donors tested
[3] = test system: CD4+ T cells from PBMC; experiment: IFN-γ ELISpot, PBMC-derived in vitro expanded CD4+ T cell lines; format: cell-based, human; set-up: key to T cell recognition by PBMC from a T1D donor (mark E) / T cell recognition by PBMC from a T1D donor: E: T cell recognition by PBMC from a T1D donor was tested and verified; see Figure 5; conditions: for T1D Donor T cell response / non-T1D Donor T cell response: PBMC T cell lines, responding donors/donors tested; for Recognition by IFN-γ-secreting CD4 T cells (ELISpot): expanded PBMCs from a T1D donor, PTM peptides and native parents; for T cell recognition by PBMC from a T1D donor (mark E): tested and verified, see Figure 5
[4] = target: HLA-DRB1*03:01 (Homo sapiens, UniProt P01903+P01911, A100K/A102G/A103R/A169T/F55Y/I96L/K41T/L162R/M171V/P40S/Q125H/Q178H/Q39Y/R42S/S66N/T106N/T262R/W38E/Y61H); experiment: Fluorescence polarization competition peptide binding assay, HLA-DRB1*03:01
[5] = donor 6551, cytokine bead array, 48 h (Figures 6A–6C)
[6] = SEC (Secretory) A2 Peptides Set
[7] = DRB1*03:01+ donor 6579, cytokine bead array (Figures 6I–6K)
[8] = PTM and unmodified native Pool Peptides (pool PTM 1), long peptides
[9] = SEC (Secretory) DR3 Peptides Set
[10] = PTM and unmodified native Pool Peptides (pool PTM 1), 9-mer peptides

RSAAVLALL [compound 175, secretory hormone eluted peptide from CHGA, pool SEC A2]
IFN-γ secretion, islet-derived T cell lines [1, 5]: strong | IL-10 secretion, islet-derived T cell lines [1, 5]: strong | TNF-α secretion, islet-derived T cell lines [1, 5]: strong | islet derived T cell lines response to A2-S peptide pools or to single peptides ([1]; donor 6551 lines): donor 6551 lines positive for IFNg, TNFa, IL10 secretion | T1D Donor T cell response [2, 6]: 1/5 | non-T1D Donor T cell response [2, 6]: 0/4

AVPEEEGPTVVLXPHPSLG [148–1, CHGA peptide 148 with asparagine modified to aspartate]
IFN-γ secretion, islet-derived T cell lines [1, 7]: recognized | IL-10 secretion, islet-derived T cell lines [1, 7]: recognized | TNF-α secretion, islet-derived T cell lines [1, 7]: recognized | islet derived T cell lines response to DR peptide pools or to single peptides ([1]; donor 6550 lines): donor 6550 lines negative | islet derived T cell lines response to DR peptide pools or to single peptides ([1]; donor 6579 lines, listed as 148-1): donor 6579 lines positive with TNFa and IL-10 secretion | T1D Donor T cell response [3, 8]: 0/4 | non-T1D Donor T cell response [3, 8]: 0/4

NYPSLELDKMAHG [peptide 182, secretory hormone eluted peptide from CHGB, pool SEC DR3]
IL-10 secretion, islet-derived T cell lines [1, 7]: recognized | islet derived T cell lines response to DR peptide pools or to single peptides ([1]; donor 6579 lines): donor 6579 lines positive with IL-10 secretion | T1D Donor T cell response [3, 9]: 0/4 | non-T1D Donor T cell response [3, 9]: 0/4

AVPEEEGPTVVLXPHPSLG [148–2]
islet derived T cell lines response to DR peptide pools or to single peptides ([1]; donor 6579 lines, listed as 148-2): donor 6579 lines positive with IFNg, TNFa and IL-10 secretion

GSHLVEALYLVCGERGF [peptide 146]
T1D Donor T cell response [3, 8]: 1/4 | non-T1D Donor T cell response [3, 8]: 0/4 | Recognition by IFN-γ-secreting CD4 T cells (ELISpot) [3]: recognized | IC50 [4]: 270 to 300 nM

QSIEGGAHEGLQHLGP [peptide 191, secretory hormone eluted peptide from SCG5, pool SEC DR3]
IL-10 secretion, islet-derived T cell lines ([1]; DRB1*03:01+ donor 6550, cytokine bead array (Figure 6H)): recognized | islet derived T cell lines response to DR peptide pools or to single peptides ([1]; donor 6550 lines): donor 6550 lines positive with IL-10 secretion | islet derived T cell lines response to DR peptide pools or to single peptides ([1]; donor 6579 lines): donor 6579 lines negative | T1D Donor T cell response [3, 9]: 0/4 | non-T1D Donor T cell response [3, 9]: 0/4

EADFAIEAL [150-1, PTM peptide, E=deamidated, Q=glutamic acid, pool PTM A2]
islet derived T cell lines response to A2-S peptide pools or to single peptides ([1]; donor 6551 lines): donor 6551 lines positive with IFNg, TNFa, IL10 secretion | T1D Donor T cell response [2, 10]: 0/6 | non-T1D Donor T cell response [2, 10]: 0/4

AAAFVNQHL [compound 171, secretory hormone eluted peptide, pool SEC A2]
islet derived T cell lines response to A2-S peptide pools or to single peptides ([1]; donor 6551 lines): donors 6551 and 6578 lines negative | islet derived T cell lines response to A2-S peptide pools or to single peptides ([1]; donor 6578 lines): donors 6551 and 6578 lines negative | T1D Donor T cell response [2, 6]: 0/6 | non-T1D Donor T cell response [2, 6]: 0/4

SVPHFXDEDKDPE [147-1, PTM peptide, X=phosphoserine, pool PTM DR3]
T1D Donor T cell response [3, 8]: 0/4 | non-T1D Donor T cell response [3, 8]: 0/4

CC(C)C[C@H](NC(=O)[C@H](C)NC(=O)[C@H](CCC(=O)O)NC(=O)[C@@H](NC(=O)[C@H](CC(C)C)NC(=O)[C@H](Cc1c[nH]cn1)NC(=O)[C@H](CO)NC(=O)CN)C(C)C)C(=O)N[C@@H](Cc1ccc(O)cc1)C(=O)N[C@@H](CC(C)C)C(=O)N[C@H](C(=O)N[C@@H](CSCC(=O)O)C(=O)NCC(=O)N[C@@H](CCC(=O)O)C(=O)N[C@@H](CCCNC(=N)N)C(=O)NCC(=O)N[C@@H](Cc1ccccc1)C(=O)O)C(C)C [peptide 146–1, GSHLVEALYLVXGERGF] (H-GSHLVEALYLVC(Carboxymethyl)GERGF-OH; N-terminus and C-terminus assumed)
T1D Donor T cell response [3, 8]: 1/4 | non-T1D Donor T cell response [3, 8]: 0/4 | Recognition by IFN-γ-secreting CD4 T cells (ELISpot) [3]: recognized | IC50 [4]: 270 to 300 nM

AELEDDFKEGYLE [peptide 2]
T1D Donor T cell response ([3]; DR3/DQ Set Peptides): 2/4 | non-T1D Donor T cell response ([3]; DR3/DQ Set Peptides): 1/2 | Number of donors whose CD4 T cells recognized the peptide (IFN-γ ELISpot) ([3]; T1D donors, PBMC-derived lines (Figure 5J)): three of the donors | IFN-γ ELISpot response of expanded CD4+ T cells ([3]; control donor LSLP-074, frequencies ∼10-fold lower than for T1D-004 (Figures 5E, 5F, S5B)): responded

FQYIIDNKGIDSDAS
T cell recognition by PBMC from a T1D donor (mark E) ([3]; MHC-II peptides): FQ YIIDNKGID SDAS ^ E

AVPEEEGPTVVLXPHPSLG [AVPEEEGPTVVLXPHPSLG (X=deamindated N=asp)]
T cell recognition by PBMC from a T1D donor ([3]; MHC-II peptides, superscript E on the peptide, G = verified with QBL cells): AVPEEEGPTVVLXPHPSLG^E,G (X=deamindated N=asp)

IDSLIELSTKLHLPADD [compound 153]
T1D Donor T cell response ([3]; HPAP-DR3 Pool Peptides): 0/4 | non-T1D Donor T cell response ([3]; HPAP-DR3 Pool Peptides): 0/4

ELSAERPLNEQIAEAE [compound 186, secretory hormone eluted peptide from SCG3, pool SEC DR3]
T1D Donor T cell response [3, 9]: 0/4 | non-T1D Donor T cell response [3, 9]: 1/4 | IFN-γ ELISpot response of expanded CD4 T cells ([3]; control donor LSLP-153, line expanded with megapool HPAP-DR3 + SEC-DR3, tested with individual peptides (Figure S5C)): IFN-γ responses

AAIQDGLAKGENDETVSNT [compound 190, secretory hormone eluted peptide, pool SEC DR3]
T1D Donor T cell response [3, 9]: 0/4 | non-T1D Donor T cell response [3, 9]: 0/4

NPAEFVVNTSNAGAG [compound 22]
T1D Donor T cell response ([3]; DR3/DQ Set Peptides): 0/4 | non-T1D Donor T cell response ([3]; DR3/DQ Set Peptides): 0/2

VPGNALVVDPRRPFRK
T cell recognition by PBMC from a T1D donor (mark E) ([3]; MHC-II peptides): VPGNA LVVDPRRPF RK ^ E
